Data from patent US10844044B2 (Vanderbilt University, priority 2018, dated 2020).

Assays:
WDR5 = WDR5 (Homo sapiens (Human), UniProt P61964); assay: TR-FRET binding assay (displacement of 10mer-Thr-FAM probe from WDR5); details: read-out: Ki for Inhibition of WDR5 by TR-FRET assay; TR-FRET, 10mer-Thr-FAM probe, WDR5-His tag 2 nM, pH 7.0
[1] = tested on: MV4:11 human cancer cell lines; assay: Anti-proliferative activity, CellTiter-Glo viability assay, 7 day protocol; format: cell-based; details: Homo sapiens, MV4-11, 168 h, MV4:11 cells, 7 day incubation, read-out: GI50 on cellular proliferation of MV4:11 human cancer cell lines
Protocol: Viability assays are performed by dispensing […] into each well of an opaque 384-well plate and adding compounds at the indicated concentrations in a final volume of 32 μL and a final concentration of DMSO of 0.1% for all samples. After a set incubation period, 7 day protocol, the viability of cells in each well is assessed using the CellTiter-Glo assay (Promega), read on a GloMax 96 Microplane Luminometer (Promega). Serial dilutions of each cell type are included in all assays to generate standard curves and determine assay measurements are taken within the dynamic range of the instrument. GI50 values are calculated based on three biological replicates, each with three technical replicates. Data are expressed as mean plus/minus S.E.M.

SMILES: COc1cc(OC)cc([C@@H](NC(=O)c2cc(Cn3ccoc3=N)cc(-c3ccc(F)cc3Cl)c2)C2CC2)c1 (stereo in doubt) [Example 249, 2′-Chloro-N-(cyclopropyl(3,5-dimethoxyphenyl)methyl)-4′-fluoro-5-((2-iminooxazol-3(2H)-yl)methyl)-[1,1′-biphenyl]-3-carboxamide]
- Ki (WDR5): < 0.1 nM
- GI50 [1]: 370 nM

SMILES: Cc1nc(F)ccc1-c1cc(Cn2ccn(C)c2=N)cc(C(=O)NCc2ccc(Cl)c(Cl)c2)c1 [Example 1, N-(3,4-Dichlorobenzyl)-3-(6-fluoro-2-methylpyridin-3-yl)-5-((2-imino-3-methyl-2,3-dihydro-1H-imidazol-1-yl)methyl)benzamide]
- Ki (WDR5): < 0.1 nM
- GI50 [1]: 300 nM

SMILES: Cc1ccnc(C(NC(=O)c2cc(Cn3ccn(C)c3=N)cc(-c3ccc(F)nc3C)c2)C2CC2)c1 (stereo not shown) [Example 3, N-(Cyclopropyl(4-methylpyridin-2-yl)methyl)-3-(6-fluoro-2-methylpyridin-3-yl)-5-((2-imino-3-methyl-2,3-dihydro-1H-imidazol-1-yl)methyl)benzamide]
- Ki (WDR5): < 0.1 nM
- GI50 [1]: 550 nM

SMILES: COc1ccnc(CNC(=O)c2cc(Cn3ccn(C)c3=N)cc(-c3ccncc3C)c2)c1 [Example 8, 3-((2-Imino-3-methyl-2,3-dihydro-1H-imidazol-1-yl)methyl)-N-((4-methoxypyridin-2-yl)methyl)-5-(3-methylpyridin-4-yl)benzamide]
- Ki (WDR5): 0.27 nM
- GI50 [1]: 170 nM

SMILES: Cc1ccnc(C(NC(=O)c2cc(Cn3ccn(C)c3=N)cc(-c3ccc(F)cc3C)c2)C2CC2)c1 (stereo not shown) [Example 9, N-(Cyclopropyl(4-methylpyridin-2-yl)methyl)-4′-fluoro-5-((2-imino-3-methyl-2,3-dihydro-1H-imidazol-1-yl)methyl)-2′-methyl-[1,1′-biphenyl]-3-carboxamide]
- Ki (WDR5): 0.15 nM
- GI50 [1]: 220 nM

SMILES: COc1ccnc(CNC(=O)c2cc(Cn3ccn(C)c3=N)cc(-c3cc(C)ccc3OC)c2)c1 [Example 10, 5-((2-Imino-3-methyl-2,3-dihydro-1H-imidazol-1-yl)methyl)-2′-m ethoxy-N-((4-methoxypyridin-2-yl)methyl)-5′-methyl-[1,1′-biphenyl]-3-carboxamide]
- Ki (WDR5): 1.5 nM
- GI50 [1]: 2300 nM

SMILES: Cc1cnccc1-c1cc(Cn2ccn(C)c2=N)cc(C(=O)NCc2ccc(Cl)c(Cl)c2)c1 [Example 25, N-(3,4-dichlorobenzyl)-3-((2-imino-3-methyl-2,3-dihydro-1H-imidazol-1-yl)methyl)-5-(3-methylpyridin-4-yl)benzamide]
- Ki (WDR5): 1.3 nM
- GI50 [1]: 6100 nM

SMILES: Cc1ccc2[nH]ncc2c1-c1cc(Cn2ccn(C)c2=N)cc(C(=O)NCc2ccc(Cl)c(Cl)c2)c1 [Example 27, N-(3,4-Dichlorobenzyl)-3-((2-imino-3-methyl-2,3-dihydro-1H-imidazol-1-yl)methyl)-5-(5-methyl-1H-indazol-4-yl)benzamide]
- Ki (WDR5): 1.5 nM
- GI50 [1]: 3100 nM

SMILES: Cc1cc(F)cc(F)c1-c1cc(Cn2ccn(C)c2=N)cc(C(=O)NCc2ccc(Cl)c(Cl)c2)c1 [Example 28, N-(3,4-Dichlorobenzyl)-2′,4′-difluoro-5-((2-imino-3-methyl-2,3-dihydro-1H-imidazo-1-yl)methyl)-6′-methyl-[1,1′-biphenyl]-3-carboxamide]
- Ki (WDR5): 0.35 nM
- GI50 [1]: 1300 nM

SMILES: Cc1cc(CNC(=O)c2cc(Cn3ccn(C)c3=N)cc(-c3c(C)ccc4[nH]ncc34)c2)ccc1Cl [Example 33, N-(4-Chloro-3-methylbenzyl)-3-((2-imino-3-methyl-2,3-dihydro-1H-imidazol-1-yl)methyl)-5-(5-methyl-1H-indazol-4-yl)benzamide]
- Ki (WDR5): 0.99 nM
- GI50 [1]: 4900 nM

SMILES: COc1cc(CN(C)C(=O)c2cc(Cn3ccn(C)c3=N)cc(-c3c(C)ccc4[nH]ncc34)c2)cc(OC)c1 [Example 34, N-(3,5-Dimethoxybenzyl)-3-((2-imino-3-methyl-2,3-dihydro-1H-imidazol-1-yl)methyl)-N-methyl-5-(5-methyl-1H-indazol-4-yl)benzamide]
- Ki (WDR5): 16 nM
- GI50 [1]: 30000 nM

SMILES: COc1cc(CNC(=O)c2cc(Cn3ccn(C)c3=N)cc(-c3c(C)ccc4[nH]ncc34)c2)cc(OC)c1 [Example 35, N-(3,5-Dimethoxybenzyl)-3-((2-imino-3-methyl-2,3-dihydro-1H-imidazol-1-yl)methyl)-5-(5-methyl-1H-indazol-4-yl)benzamide]
- Ki (WDR5): 1.3 nM
- GI50 [1]: 9000 nM

SMILES: Cc1ccnc(C(NC(=O)c2cc(Cn3ccn(C)c3=N)cc(-c3cccnc3C)c2)C2CC2)c1 (stereo not shown) [Example 37, N-(Cyclopropyl(4-methylpyridin-2-yl)methyl)-3-((2-imino-3-methyl-2,3-dihydro-1H-imidazol-1-yl)methyl)-5-(2-methylpyridin-3-yl)benzamide]
- Ki (WDR5): 0.4 nM
- GI50 [1]: 3800 nM

SMILES: Cc1cc(CNC(=O)c2cc(Cn3ccn(C)c3=N)cc(-c3cccnc3C)c2)ncn1 [Example 38, 3-((2-Imino-3-methyl-2,3-dihydro-1H-imidazol-1-yl)methyl)-5-(2-methylpyridin-3-yl)-N-((6-methylpyrimidin-4-yl)methyl)benzamide]
- Ki (WDR5): 3.7 nM
- GI50 [1]: 6000 nM

SMILES: Cc1ncccc1-c1cc(Cn2ccn(C)c2=N)cc(C(=O)NC(C2CC2)C2CC2)c1 [Example 39, N-(Dicyclopropylmethyl)-3-((2-imino-3-methyl-2,3-dihydro-1H-imidazol-1-yl)methyl)-5-(2-methylpyridin-3-yl)benzamide]
- Ki (WDR5): 17 nM
- GI50 [1]: 30000 nM

SMILES: Cc1cc(C)nc(CNC(=O)c2cc(Cn3ccn(C)c3=N)cc(-c3cccnc3C)c2)n1 [Example 42, N-((4,6-Dimethylpyrimidin-2-yl)methyl)-3-((2-imino-3-methyl-2,3-dihydro-1H-imidazol-1-yl)methyl)-5-(2-methylpyridin-3-yl)benzamide]
- Ki (WDR5): 10 nM
- GI50 [1]: 28000 nM

SMILES: Cc1ncccc1-c1cc(Cn2ccn(C)c2=N)cc(C(=O)NCc2ncc(Cl)cn2)c1 [Example 44, N-((5-Chloropyrimidin-2-yl)methyl)-3-((2-imino-3-methyl-2,3-dihydro-1H-imidazol-1-yl)methyl)-5-(2-methylpyridin-3-yl)benzamide]
- Ki (WDR5): 9.2 nM
- GI50 [1]: 22000 nM

SMILES: Cc1cc(CNC(=O)c2cc(Cn3ccn(C)c3=N)cc(-c3cccc4[nH]nc(C)c34)c2)ccc1Cl [Example 46, N-(4-chloro-3-methylbenzyl)-3-((2-imino-3-methyl-2,3-dihydro-1H-imidazol-1-yl)methyl)-5-(3-methyl-1H-indazol-4-yl)benzamide]
- Ki (WDR5): 1.3 nM
- GI50 [1]: 5900 nM

SMILES: Cc1ccnc(C(NC(=O)c2cc(Cn3ccn(C)c3=N)cc(-c3c(C)ccc4[nH]ncc34)c2)C2CC2)c1 (stereo not shown) [Example 47, N-(cyclopropyl(4-methylpyridin-2-yl)methyl)-3-((2-imino-3-methyl-2,3-dihydro-1H-imidazol-1-yl)methyl)-5-(5-methyl-1H-indazol-4-yl)benzamide]
- Ki (WDR5): 0.88 nM
- GI50 [1]: 6700 nM

SMILES: COc1cc(CNC(=O)c2cc(Cn3ccn(C)c3=N)cc(-c3c(C)cc(F)cc3F)c2)cc(OC)c1 [Example 52, N-(3,5-dimethoxybenzyl)-2′,4′-difluoro-5-((2-imino-3-methyl-2,3-dihydro-1H-imidazol-1-yl)methyl)-6′-methyl-[1,1′-biphenyl]-3-carboxamide]
- Ki (WDR5): 0.19 nM
- GI50 [1]: 510 nM

SMILES: Cc1cc(CNC(=O)c2cc(Cn3ccn(C)c3=N)cc(-c3c(C)cc(F)cc3F)c2)ccc1Cl [Example 53, N-(4-Chloro-3-methylbenzyl)-2′,4′-difluoro-5-((2-imino-3-methyl-2,3-dihydro-1H-imidazol-1-yl)methyl)-6′-methyl-[1,1′-biphenyl]-3-carboxamide]
- Ki (WDR5): 0.56 nM
- GI50 [1]: 580 nM

SMILES: Cc1cc(C(C)NC(=O)c2cc(Cn3ccn(C)c3=N)cc(-c3ccc(F)cc3C)n2)ncc1Cl (stereo not shown) [Example 55, N-(1-(5-Chloro-4-methylpyridin-2-yl)ethyl)-6-(4-fluoro-2-methylphenyl)-4-((2-imino-3-methyl-2,3-dihydro-1H-imidazol-1-yl)methyl)picolinamide]
- Ki (WDR5): 1.8 nM
- GI50 [1]: 1800 nM

SMILES: Cc1cc(CNC(=O)c2cc(Cn3ccn(C)c3=N)cc(-c3ccc(F)cc3C)n2)ccc1Cl [Example 56, N-(4-Chloro-3-methylbenzyl)-6-(4-fluoro-2-methylphenyl)-4-((2-imino-3-methyl-2,3-dihydro-1H-imidazol-1-yl)methyl)picolinamide]
- Ki (WDR5): 1.2 nM
- GI50 [1]: 450 nM

SMILES: Cc1cc([C@@H](NC(=O)c2cc(Cn3ccn(C)c3=N)cc(-c3cccnc3C(F)(F)F)c2)C2CC2)ccc1F [Example 60, (S)—N-(cyclopropyl(4-fluoro-3-methylphenyl)methyl)-3-((2-imino-3-methyl-2,3-dihydro-1H-imidazol-1-yl)methyl)-5-(2-(trifluoromethyl)pyridin-3-yl)benzamide]
- Ki (WDR5): < 0.1 nM
- GI50 [1]: < 100 nM

SMILES: COc1cc(OC)cc(C(NC(=O)c2cc(Cn3ccn(C)c3=N)cc(-c3ncccc3C(F)(F)F)c2)C2CC2)c1 (stereo not shown) [Example 61, N-(Cyclopropyl(3,5-dimethoxyphenyl)methyl)-3-((2-imino-3-methyl-2,3-dihydro-1H-imidazol-1-yl)methyl)-5-(3-(trifluoromethyl)pyridin-2-yl)benzamide]
- Ki (WDR5): 2.8 nM
- GI50 [1]: 4200 nM

SMILES: COc1cc(CNC(=O)c2cc(Cn3ccn(C)c3=N)cc(-c3ccc(F)cc3OC(F)F)c2)cc(OC)c1 [Example 62, 2′-(Difluoromethoxy)-N-(3,5-dimethoxybenzyl)-4′-fluoro-5-((2-imino-3-methyl-2,3-dihydro-1H-imidazol-1-yl)methyl)-[1,1′-biphenyl]-3-carboxamide]
- Ki (WDR5): 0.29 nM
- GI50 [1]: 800 nM
